# System: passive cutaneous anaphylaxis (PCA)
# Assay: Activity of suppressing passive cutaneous anaphylaxis (PCA)
# Format: in vivo, Male Wistar rats
# Settings: Rattus norvegicus, po, 1 h, 10 mg/kg-po, 1 hour before antigen challenge; read-out: % suppression of rat PCA
# Method: Test compounds were examined on their antiallergic activities. […] After 48 hours, 1.0 ml of 0.5 % Evans Blue saline solution containing DNP.BSA (1 mg in protein) was injected through the tail vein to induce allergic reaction. After 30 minutes, the rats were sacrificed by bleeding and the skin of back where dye was leaked out was flayed and put it into 20 ml test tube with ground stopper. Thereto was added 1.0 ml of 1N KOH aqueous solution and then it was allowed to stand at 37° C. in incubator overnight for lysing. To this solution was added 8.3 ml of a mixture of acetone and 0.6N phosphoric acid (13:5) and the mixture was mixed well and then was filtered to remove the insoluble materials.
# The test compounds were administered orally 1 hour before the antigen challenge. Suppression rate was expressed by percentage to the value in control where 0.5% aqueous methylcellulose solution was orally administered.
row,Structure (SMILES),inhibition in vivo at 10 mg/kg [%]
1,CN(C)S(=O)(=O)CCCCCCN1CCN(C(c2ccccc2)c2ccccn2)CC1 (stereo not shown) [Example 67],84.1
2,CN(C)S(=O)(=O)CCCCCCCCN1CCN(C(c2ccccc2)c2ccccc2F)CC1 (stereo not shown) [Example 69],88.3
3,COc1cc(NS(=O)(=O)CCCCCCN2CCN(C(c3ccccc3)c3ccccc3)CC2)cc(OC)c1OC [Example 99],72.1
4,O=S(=O)(CCCCCCN1CCN(C(c2ccccc2)c2ccc(Cl)cc2)CC1)NCCO (stereo not shown) [Example 101],88
5,NS(=O)(=O)CCCCCCCCCCN1CCN(C(c2ccccc2)c2ccc(Cl)cc2)CC1 (stereo not shown) [Example 104],86.7
6,CCNS(=O)(=O)CCCCCCCCN1CCN(C(c2ccccc2)c2ccc(Cl)cc2)CC1 (stereo not shown) [Example 108],82.2
7,O=S(=O)(CCCCCCCN1CCN(C(c2ccccc2)c2ccc(Cl)cc2)CC1)NC1CC1 (stereo not shown) [Example 115],73.2
8,O=S(=O)(CCCCCCCCN1CCN(C(c2ccccc2)c2ccc(Cl)cc2)CC1)NC1CC1 (stereo not shown) [Example 116],70.2
9,O=S(=O)(CCCCCCN1CCN(C(c2ccccc2)c2cccc(Cl)c2)CC1)NC1CC1 (stereo not shown) [Example 120],93.4
10,O=S(=O)(CCCCCCN1CCN(C(c2ccccc2)c2ccc(F)cc2)CC1)NC1CC1 (stereo not shown) [Example 124],88.4
11,O=S(=O)(CCCCCCN1CCN(C(c2ccccc2)c2ccc(Cl)cc2)CC1)NC1CCC1 (stereo not shown) [Example 128],86.1
12,O=S(=O)(CCCCCCCN1CCN(C(c2ccccc2)c2ccc(Cl)cc2)CC1)NC1CCC1 (stereo not shown) [Example 129],92.2
13,O=S(=O)(CCCCN1CCN(C(c2ccccc2)c2ccc(Cl)cc2)CC1)NC1CCCC1 (stereo not shown) [Example 135],74.4
14,O=S(=O)(CCCCCN1CCN(C(c2ccccc2)c2ccc(Cl)cc2)CC1)NC1CCCC1 (stereo not shown) [Example 136],80.2
15,O=S(=O)(CCCCCCCN1CCN(C(c2ccccc2)c2ccc(Cl)cc2)CC1)NC1CCCC1 (stereo not shown) [Example 137],75.8
16,CN(C)S(=O)(=O)CCCCCCCN1CCN(C(c2ccccc2)c2ccc(Cl)cc2)CC1 (stereo not shown) [Example 150],89.1

# System: extracted ileum (histamine contraction)
# Assay: Antihistaminic activity: suppression of histamine-induced contraction of extracted ileum
# Parameters: species or system Female Hartley guinea pig
# Settings: histamine 3×10^-7 M; guinea pig ileum; 50% suppression of contraction; read-out: anti-His in extracted ileum EC50
# Method: Female Hartley guinea pig (weighing 500 to 650 g) were sacrificed and the ileum (length of about 10 to 25 cm) was extracted from the ileocecum to prepare a specimen (length of 3 cm). […] After allowing to stand for 60 minutes to make the specimen stable, a histamine (3×10^-7 M) was applied to the specimen at single application. Contraction of the specimen was determined and recorded using isotonic transducer. After repeating application of a histamine to make the contraction constant, a diluted solution of the test compound was applied. Three minutes after the application, a histamine was then added and an activity of suppressing contraction was examined.
row,Structure (SMILES),EC50 [nM]
1,CN(C)S(=O)(=O)CCCCCCN1CCN(C(c2ccccc2)c2ccccn2)CC1 (stereo not shown) [Example 67],420
2,CN(C)S(=O)(=O)CCCCCCCCN1CCN(C(c2ccccc2)c2ccccc2F)CC1 (stereo not shown) [Example 69],150
3,COc1cc(NS(=O)(=O)CCCCCCN2CCN(C(c3ccccc3)c3ccccc3)CC2)cc(OC)c1OC [Example 99],1300
4,O=S(=O)(CCCCCCN1CCN(C(c2ccccc2)c2ccc(Cl)cc2)CC1)NCCO (stereo not shown) [Example 101],810
5,NS(=O)(=O)CCCCCCCCCCN1CCN(C(c2ccccc2)c2ccc(Cl)cc2)CC1 (stereo not shown) [Example 104],6800
6,CCNS(=O)(=O)CCCCCCCCN1CCN(C(c2ccccc2)c2ccc(Cl)cc2)CC1 (stereo not shown) [Example 108],680
7,O=S(=O)(CCCCCCCN1CCN(C(c2ccccc2)c2ccc(Cl)cc2)CC1)NC1CC1 (stereo not shown) [Example 115],790
8,O=S(=O)(CCCCCCCCN1CCN(C(c2ccccc2)c2ccc(Cl)cc2)CC1)NC1CC1 (stereo not shown) [Example 116],120
9,O=S(=O)(CCCCCCN1CCN(C(c2ccccc2)c2cccc(Cl)c2)CC1)NC1CC1 (stereo not shown) [Example 120],700
10,O=S(=O)(CCCCCCN1CCN(C(c2ccccc2)c2ccc(F)cc2)CC1)NC1CC1 (stereo not shown) [Example 124],200
11,O=S(=O)(CCCCCCN1CCN(C(c2ccccc2)c2ccc(Cl)cc2)CC1)NC1CCC1 (stereo not shown) [Example 128],320
12,O=S(=O)(CCCCCCCN1CCN(C(c2ccccc2)c2ccc(Cl)cc2)CC1)NC1CCC1 (stereo not shown) [Example 129],1800
13,O=S(=O)(CCCCN1CCN(C(c2ccccc2)c2ccc(Cl)cc2)CC1)NC1CCCC1 (stereo not shown) [Example 135],1100
14,O=S(=O)(CCCCCN1CCN(C(c2ccccc2)c2ccc(Cl)cc2)CC1)NC1CCCC1 (stereo not shown) [Example 136],540
15,O=S(=O)(CCCCCCCN1CCN(C(c2ccccc2)c2ccc(Cl)cc2)CC1)NC1CCCC1 (stereo not shown) [Example 137],2200
16,CN(C)S(=O)(=O)CCCCCCCN1CCN(C(c2ccccc2)c2ccc(Cl)cc2)CC1 (stereo not shown) [Example 150],350

# System: male ICR mice
# Assay: Toxicity Test (mouse acute toxicity, minimum lethal dose)
# Format: in vivo
# Settings: po, observed for 24 hours, head prints (10 mg/kg-po)
# Text: The test compounds were orally administered to male ICR mice (weighing to 30 g) after fasting overnight. […] The results were expressed by minimum lethal dose. Toxicity of any compounds of the present invention were weaker than that of ketotifen which was a reference compound.
row,Structure (SMILES),mouse acute toxicity (lethal dose) [mg/kg]
1,CN(C)S(=O)(=O)CCCCCCN1CCN(C(c2ccccc2)c2ccccn2)CC1 (stereo not shown) [Example 67],> 500
2,CN(C)S(=O)(=O)CCCCCCCCN1CCN(C(c2ccccc2)c2ccccc2F)CC1 (stereo not shown) [Example 69],> 500
3,COc1cc(NS(=O)(=O)CCCCCCN2CCN(C(c3ccccc3)c3ccccc3)CC2)cc(OC)c1OC [Example 99],> 500
4,O=S(=O)(CCCCCCN1CCN(C(c2ccccc2)c2ccc(Cl)cc2)CC1)NCCO (stereo not shown) [Example 101],> 500
5,NS(=O)(=O)CCCCCCCCCCN1CCN(C(c2ccccc2)c2ccc(Cl)cc2)CC1 (stereo not shown) [Example 104],> 500
6,CCNS(=O)(=O)CCCCCCCCN1CCN(C(c2ccccc2)c2ccc(Cl)cc2)CC1 (stereo not shown) [Example 108],> 500
7,O=S(=O)(CCCCCCCN1CCN(C(c2ccccc2)c2ccc(Cl)cc2)CC1)NC1CC1 (stereo not shown) [Example 115],> 500
8,O=S(=O)(CCCCCCCCN1CCN(C(c2ccccc2)c2ccc(Cl)cc2)CC1)NC1CC1 (stereo not shown) [Example 116],> 500
9,O=S(=O)(CCCCCCN1CCN(C(c2ccccc2)c2cccc(Cl)c2)CC1)NC1CC1 (stereo not shown) [Example 120],> 500
10,O=S(=O)(CCCCCCN1CCN(C(c2ccccc2)c2ccc(F)cc2)CC1)NC1CC1 (stereo not shown) [Example 124],> 500
11,O=S(=O)(CCCCCCN1CCN(C(c2ccccc2)c2ccc(Cl)cc2)CC1)NC1CCC1 (stereo not shown) [Example 128],> 500
12,O=S(=O)(CCCCCCCN1CCN(C(c2ccccc2)c2ccc(Cl)cc2)CC1)NC1CCC1 (stereo not shown) [Example 129],> 500
13,O=S(=O)(CCCCN1CCN(C(c2ccccc2)c2ccc(Cl)cc2)CC1)NC1CCCC1 (stereo not shown) [Example 135],> 500
14,O=S(=O)(CCCCCN1CCN(C(c2ccccc2)c2ccc(Cl)cc2)CC1)NC1CCCC1 (stereo not shown) [Example 136],> 500
15,O=S(=O)(CCCCCCCN1CCN(C(c2ccccc2)c2ccc(Cl)cc2)CC1)NC1CCCC1 (stereo not shown) [Example 137],> 500
16,CN(C)S(=O)(=O)CCCCCCCN1CCN(C(c2ccccc2)c2ccc(Cl)cc2)CC1 (stereo not shown) [Example 150],> 500

# System: mouse biphasic allergic dermal reaction
# Assay: Mouse Biphasic Allergic Dermal Reaction
# Format: in vivo, Female Balb/c mice
# Settings: Mus musculus, 1 h; 0.1 mg/kg, oral; read-out: immediate edema (1 hr) suppression (%)
# Method: Female Balb/c mice (weighing 18 to 25 g) were subjected to passive sensitization by intravenous administration of 1 ml of anti-DNP monoclonal IgE antibody showing 1:1024 of antibody titer. 24 hours after the sensitization, 25 μl of 0.15% dinitrofluorobenzene (DNFB) were applied to both sides of right and left auricles of mouse for inducing allergic reactions. Thickness of auricles were measured using Dial Thickness Gauge before the challenge with DNFB, and 1 and 24 hours after the challenge. And then, increase in thickness of auricles at 1 hour after the challenge (edema caused by immediate allergic reaction) and that at 24 hours after the challenge (edema caused by late allergic reaction) were calculated against the thickness of auricles before the challenge with DNFB, respectively.
# Suppression rate was expressed by relative ratio (%) to the value in control in which a solvent was administered.
# Test compounds, diphenhydramine which is a existing classical antihistamic drug, amlexanox which is an antiallergic drug and dexamethasone which is a steroidal drug were administered orally (partly intraperitoneally) once before antigen challenge.
# The above test was performed by using a mouse biphasic allergic dermal reaction model which was a new model [see, Sakurai T, Inagaki, N. and Nagai, H Life Sci., 54, PL291-295 (1994)]. In this model, the immediate allergic reaction was induced by mediator release from mast cell at 1 hour after the challenge, and the late allergic reaction with inflammatory cells such as eosinophil (edema after 24 hours) was induced after 24 hours from the challenge.
row,Structure (SMILES),inhibition in vivo at 0.1 mg/kg [%]
1,O=S(=O)(CCCCCCN1CCN(C(c2ccccc2)c2cccc(Cl)c2)CC1)NC1CC1 (stereo not shown) [Example 120],26.1
2,O=S(=O)(CCCCCCN1CCN(C(c2ccccc2)c2ccc(Cl)cc2)CC1)NC1CCC1 (stereo not shown) [Example 128],32

# Same assay, conditions: Mus musculus, 1 h; 1.0 mg/kg, oral; read-out: immediate edema (1 hr) suppression (%)
row,Structure (SMILES),inhibition in vivo at 1 mg/kg [%]
1,O=S(=O)(CCCCCCN1CCN(C(c2ccccc2)c2cccc(Cl)c2)CC1)NC1CC1 (stereo not shown) [Example 120],56.5
2,O=S(=O)(CCCCCCN1CCN(C(c2ccccc2)c2ccc(Cl)cc2)CC1)NC1CCC1 (stereo not shown) [Example 128],28

# Same assay, conditions: Mus musculus, 24 h; 0.1 mg/kg, oral; read-out: late edema (24 hr) suppression (%)
row,Structure (SMILES),inhibition in vivo at 0.1 mg/kg [%]
1,O=S(=O)(CCCCCCN1CCN(C(c2ccccc2)c2cccc(Cl)c2)CC1)NC1CC1 (stereo not shown) [Example 120],7.1
2,O=S(=O)(CCCCCCN1CCN(C(c2ccccc2)c2ccc(Cl)cc2)CC1)NC1CCC1 (stereo not shown) [Example 128],36

# Same assay, conditions: Mus musculus, 24 h; 1.0 mg/kg, oral; read-out: late edema (24 hr) suppression (%)
row,Structure (SMILES),inhibition in vivo at 1 mg/kg [%]
1,O=S(=O)(CCCCCCN1CCN(C(c2ccccc2)c2cccc(Cl)c2)CC1)NC1CC1 (stereo not shown) [Example 120],25
2,O=S(=O)(CCCCCCN1CCN(C(c2ccccc2)c2ccc(Cl)cc2)CC1)NC1CCC1 (stereo not shown) [Example 128],40

# Same assay, conditions: edema after 24 hours
row,Structure (SMILES),suppression of the late allergic reaction (in words)
1,O=S(=O)(CCCCCCN1CCN(C(c2ccccc2)c2cccc(Cl)c2)CC1)NC1CC1 (stereo not shown) [Example 120],showed strong activity of suppressing the late allergic reaction
2,O=S(=O)(CCCCCCN1CCN(C(c2ccccc2)c2ccc(Cl)cc2)CC1)NC1CCC1 (stereo not shown) [Example 128],showed strong activity of suppressing the late allergic reaction

# — US5716950A, “Diazacycloalkanealkylsulfonamide derivatives” (Nippon Shoji Kabushiki Kaisha, priority 1994, dated 1998)
